The target in assay [1] is T1, ΔF508-CFTR (Homo sapiens, UniProt P13569, DEL508-508).
T1 construct: host or cells: CFBE41o-, doxycycline-inducible
The assay is described as follows: CFTR cell surface levels using HRP-tagged ΔF508-CFTR expressing CFBE cells, in the presence of a co-corrector. Type of assay: cell-based. In short, it runs like this: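 Cells were seeded with 0.5 μg/mL doxycycline and held 68 h at 37 °C. Test compounds plus 3 μM co-corrector (final 0.1% DMSO) were then added for 20 h at 33 °C. Washed cells received HRP substrate, and luminescence was normalized between DMSO and 3 μM co-corrector controls.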

For assay [2], the target named is T1, ΔF508-CFTR. Kind of assay: CFTR cell surface levels using HRP-tagged ΔF508-CFTR expressing CFBE cells, intrinsic corrector capacity. Type of assay: cell-based. In short, it runs like this:
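Here the cells express ΔF508-CFTR with horseradish peroxidase inserted in extracellular loop 4, so only rescued channel at the surface gives luminescent signal. Compounds act on their own, 20 h at the reduced temperature of 33 °C; values are percent activity relative to DMSO and a 3 μM corrector.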

The mark [3] stands for this setting: HRP-tagged ΔF508-CFTR expressing CFBE cells, in the presence of 3 μM co-corrector.
Setting [4] is: HRP-tagged ΔF508-CFTR expressing CFBE cells, in the presence of 3 μM co-corrector, read-out: EC50.
[5] abbreviates: HRP-tagged ΔF508-CFTR CFBE41o- cells, compounds alone (intrinsic corrector capacity), 20 hours at 33° C., positive control 3 μM corrector.
Setting [6] is: HRP-tagged ΔF508-CFTR CFBE41o- cells, compounds alone (intrinsic corrector capacity), 20 hours at 33° C., read-out: EC50.
[7] abbreviates: HRP-tagged ΔF508-CFTR expressing CFBE cells, intrinsic corrector capacity (no co-corrector), 33° C., 20 hours.
Setting [8] is: HRP-tagged ΔF508-CFTR expressing CFBE cells, intrinsic corrector capacity (no co-corrector), 33° C., 20 hours, read-out: EC50.

T1 sequence (P13569 with tags, fused parts or gaps DEL508-508): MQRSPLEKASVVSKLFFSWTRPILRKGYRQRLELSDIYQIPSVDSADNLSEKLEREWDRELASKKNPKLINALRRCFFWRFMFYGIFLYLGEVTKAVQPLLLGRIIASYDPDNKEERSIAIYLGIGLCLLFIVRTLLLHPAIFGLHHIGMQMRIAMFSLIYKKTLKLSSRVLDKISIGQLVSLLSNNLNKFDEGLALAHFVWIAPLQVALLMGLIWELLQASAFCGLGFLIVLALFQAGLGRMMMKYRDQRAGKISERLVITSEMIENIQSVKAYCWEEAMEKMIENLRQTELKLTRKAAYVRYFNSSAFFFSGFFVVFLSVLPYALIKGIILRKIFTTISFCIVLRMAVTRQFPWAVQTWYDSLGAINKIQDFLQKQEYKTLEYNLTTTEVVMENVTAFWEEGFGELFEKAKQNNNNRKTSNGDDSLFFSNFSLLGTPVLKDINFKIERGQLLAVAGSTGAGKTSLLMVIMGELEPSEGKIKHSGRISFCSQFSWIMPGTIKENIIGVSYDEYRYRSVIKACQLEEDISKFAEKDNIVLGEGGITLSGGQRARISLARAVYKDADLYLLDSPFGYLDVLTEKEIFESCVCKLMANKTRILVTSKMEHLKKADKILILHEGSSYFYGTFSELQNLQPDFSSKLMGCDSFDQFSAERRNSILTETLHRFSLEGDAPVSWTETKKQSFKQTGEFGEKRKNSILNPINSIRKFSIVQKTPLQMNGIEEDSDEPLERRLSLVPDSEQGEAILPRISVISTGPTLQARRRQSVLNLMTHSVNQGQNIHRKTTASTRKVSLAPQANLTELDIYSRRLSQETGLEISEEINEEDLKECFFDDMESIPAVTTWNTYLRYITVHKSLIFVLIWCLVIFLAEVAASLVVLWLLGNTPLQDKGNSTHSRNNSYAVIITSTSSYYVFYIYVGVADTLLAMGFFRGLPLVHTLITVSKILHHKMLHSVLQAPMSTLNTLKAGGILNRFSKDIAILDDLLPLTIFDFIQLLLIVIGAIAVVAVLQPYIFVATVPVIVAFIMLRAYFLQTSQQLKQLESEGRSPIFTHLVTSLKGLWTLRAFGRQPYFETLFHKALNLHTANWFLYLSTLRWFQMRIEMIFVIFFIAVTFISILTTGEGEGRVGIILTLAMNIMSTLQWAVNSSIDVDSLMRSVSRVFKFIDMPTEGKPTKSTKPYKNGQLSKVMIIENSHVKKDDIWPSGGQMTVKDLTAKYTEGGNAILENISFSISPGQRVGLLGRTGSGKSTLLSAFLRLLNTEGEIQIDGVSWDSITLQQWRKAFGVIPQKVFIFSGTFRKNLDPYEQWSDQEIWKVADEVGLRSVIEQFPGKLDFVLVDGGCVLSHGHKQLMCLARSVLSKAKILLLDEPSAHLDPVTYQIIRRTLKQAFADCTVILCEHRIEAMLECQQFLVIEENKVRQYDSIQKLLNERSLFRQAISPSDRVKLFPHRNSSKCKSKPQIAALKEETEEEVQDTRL

With `Cc1cccc(-n2nc(C(C)C)c3c(N4CCC(C#N)C4)cc(C(=O)O)nc32)c1` (centres unmarked) [compound 218, 4-(3-cyanopyrrolidin-1-yl)-1-(3-methylphenyl)-3-(propan-2-yl)-1H-pyrazolo[3,4-b]pyridine-6-carboxylic acid], the “% Activation” value on ΔF508-CFTR [1] (setting [3]) was found to be 380.9%; at ΔF508-CFTR [2] (setting [5]), 169.4%. The values for the concentration giving a half-maximal response (EC50) on ΔF508-CFTR [1] (setting [4]) and at ΔF508-CFTR [2] (setting [6]) were 0.933 µM and 2.31 µM, respectively.
On to `Cc1nn(-c2ccccc2)c2nc(C(=O)O)cc(-c3ccc(N(C)C4CCC4)cc3)c12` [compound 115, 4-{4-[cyclobutyl(methyl)amino]phenyl}-3-methyl-1-phenyl-1H-pyrazolo[3,4-b]pyridine-6-carboxylic acid], for which the entries for the “% Activation” value on ΔF508-CFTR [1] (setting [3]) and on ΔF508-CFTR [2] (setting [5]) were 354% and 152.3%, respectively. The EC50 – broadly, the concentration at which the effect is half-maximal – on ΔF508-CFTR [1] (setting [4]) was found to be 1.28 µM; on ΔF508-CFTR [2] (setting [6]) it was 1.87 µM.
As to `Cc1nn(-c2ccccc2)c2nc(C(=O)O)cc(OCC3(S(C)(=O)=O)CCC3)c12` [compound 384, 4-{[1-(methanesulfonyl)cyclobutyl]methoxy}-3-methyl-1-phenyl-1H-pyrazolo[3,4-b]pyridine-6-carboxylic acid], the “% Activation” value at ΔF508-CFTR [1] (setting [3]) is 123%; on ΔF508-CFTR [2] (setting [5]), 8.1785%. Further, the EC50 at ΔF508-CFTR [1] (setting [4]) and at ΔF508-CFTR [2] (setting [6]) was 5.01 µM throughout.
In the case of `CC(C)c1nn(C2CCCCC2)c2nc(C(=O)O)cc(N3CCC(CO)CC3)c12` [compound 266, 1-cyclohexyl-4-[4-(hydroxymethyl)piperidin-1-yl]-3-(propan-2-yl)-1H-pyrazolo[3,4-b]pyridine-6-carboxylic acid], the “% Activation” value at ΔF508-CFTR [1] (setting [3]) was 405.3%; on ΔF508-CFTR [2] (setting [5]), 197.55%. Also, the EC50 was determined as 1.05 µM at ΔF508-CFTR [1] (setting [4]) and 1.25 µM at ΔF508-CFTR [2] (setting [6]).
Regarding `O=C(O)c1cc(N2CCN3C[C@@H](F)C[C@H]3C2)c2c(C3CCC3)nn(-c3ccccc3)c2n1` [compound 515, 3-cyclobutyl-4-[(7S,8aS)-7-fluorohexahydropyrrolo[1,2-a]pyrazin-2(11/)-yl]-1-phenyl-1H-pyrazolo[3,4-b]pyridine-6-carboxylic acid], the figures for the “% Activation” value on ΔF508-CFTR [1] (setting [3]) and on ΔF508-CFTR [2] (setting [7]) were 173.5% and 15.59%, respectively. Moreover, the values for the EC50 on ΔF508-CFTR [1] (setting [4]) and on ΔF508-CFTR [2] (setting [8]) were 3.33 µM and greater than 10 µM, respectively.
With `O=C(O)c1cc(N2CCC3(CC2)CCN(C2COC2)CC3)c2c(C3CCC3)nn(-c3ccc(F)cc3)c2n1` [compound 904, 3-cyclobutyl-1-(4-fluorophenyl)-4-[9-(oxetan-3-yl)-3,9-diazaspiro[5.5]undecan-3-yl]-1H-pyrazolo[3,4-b]pyridine-6-carboxylic acid], the “% Activation” value was 372.85% at ΔF508-CFTR [1] (setting [3]) and 200.1% at ΔF508-CFTR [2] (setting [7]). The EC50 at ΔF508-CFTR [1] (setting [4]) was 0.102 µM; at ΔF508-CFTR [2] (setting [8]), 0.237 µM.
For the compound `O=C(O)c1cc(OCCOC2COC2)c2c(C3CCC3)nn(-c3ccccc3)c2n1` [compound 483, 3-cyclobutyl-4-{2-[(oxetan-3-yl)oxy]ethoxy}-1-phenyl-1H-pyrazolo[3,4-b]pyridine-6-carboxylic acid], the “% Activation” value is given as 267% at ΔF508-CFTR [1] (setting [3]) and 142.4% at ΔF508-CFTR [2] (setting [7]). The EC50 is 0.367 µM on ΔF508-CFTR [1] (setting [4]) and 0.897 µM on ΔF508-CFTR [2] (setting [8]).
As to `O=C(O)c1cc(O[C@@H]2CCOC2)c2c(C3CCC3)nn(-c3ccccc3)c2n1` [compound 582, 3-cyclobutyl-4-{[(3R)-oxolan-3-yl]oxy}-1-phenyl-1H-pyrazolo[3,4-b]pyridine-6-carboxylic acid], the results for the “% Activation” value on ΔF508-CFTR [1] (setting [3]) and at ΔF508-CFTR [2] (setting [7]) were 307.5% and 92.03%, respectively. Further, the EC50 on ΔF508-CFTR [1] (setting [4]) came to 0.614 µM; at ΔF508-CFTR [2] (setting [8]), 0.903 µM.
Consider `CC(C)(C)OC(=O)N1CCCC1c1nn(-c2ccccc2)c2nc(C(=O)O)cc(-c3ccc(N4CCOCC4)nc3)c12` (centres unmarked) [compound 103, 3-[1-(tert-butoxycarbonyl)pyrrolidin-2-yl]-4-[6-(morpholin-4-yl)pyridin-3-yl]-1-phenyl-1H-pyrazolo[3,4-b]pyridine-6-carboxylic acid], for which the entries for the “% Activation” value at ΔF508-CFTR [1] (setting [3]) and on ΔF508-CFTR [2] (setting [5]) were 302% and 115.65%, respectively. The values for the EC50 on ΔF508-CFTR [1] (setting [4]) and on ΔF508-CFTR [2] (setting [6]) were 0.694 µM and 0.703 µM, respectively.
With `Cc1cccc(-n2nc(C(C)C)c3c(N4CCC5(CCCCC5)CC4)cc(C(=O)O)nc32)c1` [compound 360, 4-(3-azaspiro[5.5]undecan-3-yl)-1-(3-methylphenyl)-3-(propan-2-yl)-1H-pyrazolo[3,4-b]pyridine-6-carboxylic acid], the “% Activation” value on ΔF508-CFTR [1] (setting [3]) came to 293%; on ΔF508-CFTR [2] (setting [5]), 96.335%. In addition, the 50% effective concentration (EC50) at ΔF508-CFTR [1] (setting [4]) was found to be 1.03 µM; on ΔF508-CFTR [2] (setting [6]), 1.17 µM.
The matching figures for `CC(C)c1nn(-c2cccc(N3CCCC3)c2)c2nc(C(=O)O)cc(-c3ccc(N(C)C4CCOCC4)nc3)c12` [compound 250, 4-{6-[methyl(oxan-4-yl)amino]pyridin-3-yl}-3-(propan-2-yl)-1[3-(pyrrolidin-1-yl)phenyl]-1H-pyrazolo[3,4-b]pyridine-6-carboxylic acid]: 622.03%, 394.7%, 0.508 µM and 0.456 µM.
The matching figures for `Cc1nn(-c2ccccc2)c2nc(C(=O)O)cc(N3CCN4C(=O)OCC4C3)c12` (centres unmarked) [compound 301, 3-methyl-4-(3-oxotetrahydro-3H-[1,3]oxazolo[3,4-a]pyrazin-7(1H)-yl)-1-phenyl-1H-pyrazolo[3,4-b]pyridine-6-carboxylic acid]: 117.35%, 12.64%, 7.5 µM and 7.5 µM.
The matching figures for `Cc1nn(-c2ccccc2)c2nc(C(=O)O)cc(OCC3(C)CC(F)(F)C3)c12` [compound 386, 4-[(3,3-difluoro-1-methylcyclobutyl)methoxy]-3-methyl-1-phenyl-1H-pyrazolo[3,4-b]pyridine-6-carboxylic acid]: 250.65%, 64.285%, 1.44 µM and 1.31 µM.
Take `Cc1nn(-c2ccccc2)c2nc(C(=O)O)cc(N3CCC(C(=O)N(C)C)CC3)c12` [compound 319, 4-[4-(dimethylcarbamoyl)piperidin-1-yl]-3-methyl-1-phenyl-1H-pyrazolo[3,4-b]pyridine-6-carboxylic acid]: the “% Activation” value at ΔF508-CFTR [1] (setting [3]) is listed as 270.75%; at ΔF508-CFTR [2] (setting [5]), 80.905%. Further, the EC50 stood at 4.17 µM on ΔF508-CFTR [1] (setting [4]) and 2.51 µM at ΔF508-CFTR [2] (setting [6]).
On to `O=C(O)c1cc(N2CCC([C@@H](F)CO)CC2)c2c(C3CCC3)nn(-c3ccccc3)c2n1` [compound 458, 3-cyclobutyl-4-{4-[(1R)-1-fluoro-2-hydroxyethyl]piperidin-1-yl}-1-phenyl-1H-pyrazolo[3,4-b]pyridine-6-carboxylic acid], for which the results for the “% Activation” value at ΔF508-CFTR [1] (setting [3]) and on ΔF508-CFTR [2] (setting [7]) were 399.6% and 216.4%, respectively. Also, the concentration for a half-maximal effect (EC50) came out at 0.278 µM on ΔF508-CFTR [1] (setting [4]) and 0.485 µM at ΔF508-CFTR [2] (setting [8]).
`CC(C)Oc1nn(-c2ccccc2)c2nc(C(=O)O)cc(-c3ccc(N4CCOCC4)cc3)c12` [compound 390, 4-[4-(morpholin-4-yl)phenyl]-1-phenyl-3-[(propan-2-yl)oxy]-1H-pyrazolo[3,4-b]pyridine-6-carboxylic acid]: the “% Activation” value amounted to 362% at ΔF508-CFTR [1] (setting [3]) and 177.8% on ΔF508-CFTR [2] (setting [5]). For the same compound, the EC50 was found to be 0.272 µM on ΔF508-CFTR [1] (setting [4]) and 0.585 µM at ΔF508-CFTR [2] (setting [6]).
Take `CN1CCN(C2CCN(c3cc(C(=O)O)nc4c3c(C3CCC3)nn4-c3ccccc3)CC2)CC1` [compound 757, 3-cyclobutyl-4-[4-(4-methylpiperazin-1-yl)piperidin-1-yl]-1-phenyl-1H-pyrazolo[3,4-b]pyridine-6-carboxylic acid]: the “% Activation” value on ΔF508-CFTR [1] (setting [3]) is 489.6%; on ΔF508-CFTR [2] (setting [7]) it was 208.45%. Besides, the EC50 worked out at 0.402 µM at ΔF508-CFTR [1] (setting [4]) and 0.319 µM on ΔF508-CFTR [2] (setting [8]).
Consider `Cc1c(C(=O)O)nc2c(c(C(C)C)nn2-c2ccc(F)cc2)c1N1CCC(N2CCOCC2)CC1` [compound 763, 1-(4-fluorophenyl)-5-methyl-4-[4-(morpholin-4-yl)piperidin-1-yl]-3-(propan-2-yl)-1H-pyrazolo[3,4-b]pyridine-6-carboxylic acid], for which the EC50 was 1.67 µM at ΔF508-CFTR [1] and 1.63 µM at ΔF508-CFTR [2]. Besides, the “% Activation” value on ΔF508-CFTR [1] (setting [3]) was found to be 276.3%; on ΔF508-CFTR [2] (setting [5]), 161.25%.
With `COCC1CN(c2cc(C(=O)O)nc3c2c(C)nn3-c2ccccc2)C1` [compound 294, 4-[3-(methoxymethyl)azetidin-1-yl]-3-methyl-1-phenyl-1H-pyrazolo[3,4-b]pyridine-6-carboxylic acid], the “% Activation” value was 225.5% at ΔF508-CFTR [1] (setting [3]) and 73.275% on ΔF508-CFTR [2] (setting [5]). Moreover, the EC50 on ΔF508-CFTR [1] (setting [4]) and at ΔF508-CFTR [2] (setting [6]) was 2.51 µM in each case.
As for `CC(C)c1nn(C2CCCC2)c2nc(C(=O)O)cc(-c3ccc(N(C)C)nc3)c12` [compound 83, 1-cyclopentyl-4-[6-(dimethylamino)pyridin-3-yl]-3-(propan-2-yl)-1H-pyrazolo[3,4-b]pyridine-6-carboxylic acid], the entries for the “% Activation” value on ΔF508-CFTR [1] (setting [3]) and at ΔF508-CFTR [2] (setting [5]) were 332.65% and 142.25%, respectively. In addition, the EC50 on ΔF508-CFTR [1] (setting [4]) is 1.05 µM; on ΔF508-CFTR [2] (setting [6]), 1.47 µM.

The values are drawn from patent US9796711B2, “Substituted pyrazolo[3,4-b]pyridin-6-carboxylic acids and method of use” (AbbVie S.àr.l., priority 2015, dated 2017).
